Test system: patients with relapsing multiple sclerosis
Assay: Phase 2b dose-finding study: adverse events (TEAEs, SAEs, AESIs), safety population
Conditions: for Adverse event: Accidental overdose / Adverse event: Alanine aminotransferase increased / Adverse event: Alopecia / Adverse event: Back pain / Adverse event: Gastroenteritis / Adverse event: Headache / Adverse event: Muscle spasticity / Adverse event: Nasopharyngitis / Adverse event: Oropharyngeal pain / Adverse event: Peripheral edema / Adverse event: Respiratory tract infection / Adverse event: Upper respiratory tract infection: 12 weeks treatment
[1] = BTKi 5 mg (n = 33), Weeks 1 to 12
[2] = BTKi 15 mg (N = 16), Weeks 1 to 4
[3] = BTKi 15 mg (n = 32), Weeks 1 to 12
[4] = BTKi 30 mg (N = 16), Weeks 1 to 4
[5] = BTKi 30 mg (n = 33), Weeks 1 to 12
[6] = BTKi 60 mg (N = 16), Weeks 1 to 4
[7] = BTKi 60 mg (n = 32), Weeks 1 to 12
[8] = BTKi 5 (N = 32), BTK inhibitor treatment period, safety population
[9] = BTKi 15 (N = 32), BTK inhibitor treatment period, safety population
[10] = BTKi 30 (N = 33), BTK inhibitor treatment period, safety population
[11] = BTKi 60 (N = 33), BTK inhibitor treatment period, safety population

## C=CC(=O)N1CCC[C@@H](n2c(=O)n(-c3ccc(Oc4ccccc4)cc3)c3c(N)nccc32)C1 [the BTK inhibitor, (R)-1-(1-acryloylpiperidin-3-yl)-4-amino-3-(4-phenoxyphenyl)-1H-imidazo[4,5-c]pyridin-2(3H)-one]
[1]
  Any treatment-related AE: 5 (15.2) n (%)
  Serious AE: 0 n (%)
[2]
  AE leading to death: 0
  AE leading to study discontinuation: 0
  Any AE leading to study treatment discontinuation: 0
  Any treatment-related AE: 0
  Serious AE: 0
BTKi 15 mg (n = 32)
  Adverse event: Accidental overdose: 0%
  Adverse event: Alanine aminotransferase increased: 0%
  Adverse event: Alopecia: 1 (3%)
  Adverse event: Back pain: 1 (3%)
  Adverse event: Gastroenteritis: 0%
  Adverse event: Headache: 3 (9%)
  Adverse event: Muscle spasticity: 0%
  Adverse event: Nasopharyngitis: 0%
  Adverse event: Oropharyngeal pain: 0%
  Adverse event: Peripheral edema: 0%
  Adverse event: Respiratory tract infection: 1 (3%)
  Adverse event: Upper respiratory tract infection: 2 (6%)
[3]
  AE leading to death: 0 n (%)
  AE leading to study discontinuation: 0 n (%)
  Any AE (4 weeks vs. placebo 12 weeks): 17 (53.1) n (%)
  Any AE leading to study treatment discontinuation: 0 n (%)
  Any treatment-related AE: 1 (3.1) n (%)
  Serious AE: 0 n (%)
[4]
  AE leading to death: 0
  AE leading to study discontinuation: 0
  Any AE leading to study treatment discontinuation: 0
  Any treatment-related AE: 0
  Serious AE: 0
BTKi 30 mg (n = 33)
  Adverse event: Accidental overdose: 0%
  Adverse event: Alanine aminotransferase increased: 1 (3%)
  Adverse event: Alopecia: 0%
  Adverse event: Back pain: 2 (6%)
  Adverse event: Gastroenteritis: 0%
  Adverse event: Headache: 1 (3%)
  Adverse event: Muscle spasticity: 1 (3%)
  Adverse event: Nasopharyngitis: 1 (3%)
  Adverse event: Oropharyngeal pain: 1 (3%)
  Adverse event: Peripheral edema: 0%
  Adverse event: Respiratory tract infection: 1 (3%)
  Adverse event: Upper respiratory tract infection: 1 (3%)
[5]
  AE leading to death: 0 n (%)
  AE leading to study discontinuation: 0 n (%)
  Any AE (4 weeks vs. placebo 12 weeks): 18 (54.5) n (%)
  Any AE leading to study treatment discontinuation: 0 n (%)
  Any treatment-related AE: 4 (12.1) n (%)
  Serious AE: 0 n (%)
[6]
  AE leading to death: 0
  AE leading to study discontinuation: 0
  Any AE leading to study treatment discontinuation: 0
  Serious AE: 0
BTKi 60 mg (n = 32)
  Adverse event: Accidental overdose: 3 (9%)
  Adverse event: Alanine aminotransferase increased: 1 (3%)
  Adverse event: Alopecia: 1 (3%)
  Adverse event: Back pain: 0%
  Adverse event: Gastroenteritis: 2 (6%)
  Adverse event: Headache: 4 (13%)
  Adverse event: Muscle spasticity: 2 (6%)
  Adverse event: Nasopharyngitis: 3 (9%)
  Adverse event: Oropharyngeal pain: 1 (3%)
  Adverse event: Peripheral edema: 2 (6%)
  Adverse event: Respiratory tract infection: 1 (3%)
  Adverse event: Upper respiratory tract infection: 1 (3%)
[7]
  AE leading to death: 0 n (%)
  AE leading to study discontinuation: 0 n (%)
  Any AE (4 weeks vs. placebo 12 weeks): 16 (50.0) n (%)
  Any AE leading to study treatment discontinuation: 0 n (%)
  Any treatment-related AE: 7 (21.9) n (%)
  Serious AE: 1 (3.1) n (%)
[8]
  Participants with any TEAE: 16 (50.0) n (%)
  Participants with any TEAE leading to death: 0 n (%)
  Participants with any TEAE leading to study treatment discontinuation: 0 n (%)
  Participants with any severe TEAE: 0 n (%)
  Participants with any treatment emergent SAE: 0 n (%)
  Participants with any treatment-related TEAE: 6 (18.8) n (%)
  Participants with study discontinuation due to any TEAE: 0 n (%)
  Participants with treatment emergent SAE(s): Any class: 0 n(%)
  Participants with treatment emergent SAE(s): Multiple sclerosis relapse: 0 n(%)
  Participants with treatment emergent SAE(s): NERVOUS SYSTEM DISORDERS: 0 n(%)
BTKi 5 (N = 32), Weeks 1 to 4
  Participants with any TEAE leading to death: 0 n (%)
  Participants with any TEAE leading to study treatment discontinuation: 0 n (%)
  Participants with any severe TEAE: 0 n (%)
  Participants with any treatment emergent SAE: 0 n (%)
  Participants with study discontinuation due to any TEAE: 0 n (%)
[9]
  Participants with any TEAE: 18 (56.3) n (%)
  Participants with any TEAE leading to death: 0 n (%)
  Participants with any TEAE leading to study treatment discontinuation: 0 n (%)
  Participants with any severe TEAE: 0 n (%)
  Participants with any treatment emergent SAE: 0 n (%)
  Participants with any treatment-related TEAE: 3 (9.4) n (%)
  Participants with study discontinuation due to any TEAE: 0 n (%)
  Participants with treatment emergent SAE(s): Any class: 0 n(%)
  Participants with treatment emergent SAE(s): Multiple sclerosis relapse: 0 n(%)
  Participants with treatment emergent SAE(s): NERVOUS SYSTEM DISORDERS: 0 n(%)
BTKi 15 (N = 32), Weeks 1 to 4
  Participants with any TEAE leading to death: 0 n (%)
  Participants with any TEAE leading to study treatment discontinuation: 0 n (%)
  Participants with any severe TEAE: 0 n (%)
  Participants with any treatment emergent SAE: 0 n (%)
  Participants with study discontinuation due to any TEAE: 0 n (%)
[10]
  Participants with any TEAE: 17 (51.5) n (%)
  Participants with any TEAE leading to death: 0 n (%)
  Participants with any TEAE leading to study treatment discontinuation: 0 n (%)
  Participants with any severe TEAE: 1 (3.0) n (%)
  Participants with any treatment emergent SAE: 1 (3.0) n (%)
  Participants with any treatment-related TEAE: 4 (12.1) n (%)
  Participants with study discontinuation due to any TEAE: 0 n (%)
  Participants with treatment emergent SAE(s): Any class: 1 (3.0) n(%)
  Participants with treatment emergent SAE(s): Multiple sclerosis relapse: 1 (3.0) n(%)
  Participants with treatment emergent SAE(s): NERVOUS SYSTEM DISORDERS: 1 (3.0) n(%)
BTKi 30 (N = 33), Weeks 1 to 4
  Participants with any TEAE leading to death: 0 n (%)
  Participants with any TEAE leading to study treatment discontinuation: 0 n (%)
  Participants with any severe TEAE: 0 n (%)
  Participants with any treatment emergent SAE: 0 n (%)
  Participants with study discontinuation due to any TEAE: 0 n (%)
[11]
  Participants with any TEAE leading to death: 0 n (%)
  Participants with any TEAE leading to study treatment discontinuation: 0 n (%)
  Participants with any severe TEAE: 0 n (%)
  Participants with any treatment emergent SAE: 0 n (%)
  Participants with any treatment-related TEAE: 2 (6.1) n (%)
  Participants with study discontinuation due to any TEAE: 0 n (%)
  Participants with treatment emergent SAE(s): Any class: 0 n(%)
  Participants with treatment emergent SAE(s): Multiple sclerosis relapse: 0 n(%)
  Participants with treatment emergent SAE(s): NERVOUS SYSTEM DISORDERS: 0 n(%)
BTKi 60 (N = 33), Weeks 1 to 4
  Participants with any TEAE leading to death: 0 n (%)
  Participants with any TEAE leading to study treatment discontinuation: 0 n (%)
  Participants with any severe TEAE: 0 n (%)
  Participants with any treatment emergent SAE: 0 n (%)
  Participants with study discontinuation due to any TEAE: 0 n (%)
All dose groups
  AESIs (alanine aminotransferase increased >3×ULN) reported in the study: two
  TEAEs leading to permanent treatment discontinuation: no TEAEs leading to permanent treatment discontinuation
In each treatment group (5, 15, 30, 60 mg), Weeks 1 to 4
  Upper respiratory tract infection (TEAE): 1 case
Whole study, all dose groups
  Deaths: No deaths

Source: patent US20260272907A1, “Therapeutic Tyrosine Kinase Inhibitors for Multiple Sclerosis” (Principia Biopharma Inc., priority 2022, published 2026)
